Assay results published in patent US11918572B2, “Pharmaceutical compositions for treating pain” (REBEL MEDICINE INC, priority 2022, dated 2024).

Legend:
[1] = controlled release of drug from the formulation (dialysis bag in PBS sink, UV 272 nm); type: physicochemical
Protocol: (§1) The controlled release of the formulation was evaluated where 0.5 mL of the formulation was placed into a dialysis bag (10 kDa) and submerged in 50 mL sink of phosphate buffered saline (1×; pH 7.4). The samples were placed into a rotating incubator (1 Hz) at 37° C. At designated timepoints, 2 mL of saline was removed and analyzed using ultraviolet visible spectrophotometry (272 nm). The entire sink medium was replaced at each timepoint until drug no longer eluted out of the system.
as §1, with “The release of bupivacaine is shown in a formulation including MCT oil and glycerol monostearate as a structuring agent with and without the presence of an anion to increase hydrophobicity. […] The controlled” for “The controlled”, “buffered saline (lx; pH 7.4).” for “buffered saline (1×; pH 7.4).”

[2] = max solubility of bupivacaine in oil (37° C. overnight, centrifuge, UV 272 nm)
Protocol: The solubility of bupivacaine in a blend of MCT oil and castor oil was studied. […] The max solubility of the oil blends was determined by adding 300 mg of bupivacaine free base into 3 mL of an MCT: castor oil mixture. […] After rotating, samples were spun in a centrifuge at 2000×g for 5 minutes. Next, 30 uL of sample supernatant was taken and dissolved to 1470 uL of ethanol and analyzed using ultraviolet visible spectrophotometry (272 nm).

[3] = solubility of ropivacaine forms in lipophilic oils; type: physicochemical

CCCCC(CC)COC(=O)CC(C(=O)OCC(CC)CCCC)S(=O)(=O)O.CCCCN1CCCCC1C(=O)Nc1c(C)cccc1C (stereo not drawn) [bupivacaine with docusate, bupivacaine docusate]
release of bupivacaine with and without an anion ([1]; FIG. 13, MCT oil and glycerol monostearate, PBS pH 7.4, 37° C.): prolonged

CCCCN1CCCCC1C(=O)Nc1c(C)cccc1C (stereo not drawn) [bupivacaine]
drug solubility in castor oil versus MCT [2]: higher drug solubility in castor oil than MCT
solubility of bupivacaine (drug loading) in blends of MCT oil and castor oil ([2]; FIG. 11, 37° C. overnight): drug loading increases with specific blends of oil
drug release with specific blends of oil ([1]; MCT oil:castor oil blends): slows

CCCCC(CC)COC(=O)CC(C(=O)OCC(CC)CCCC)S(=O)(=O)O.CCCN1CCCCC1C(=O)Nc1c(C)cccc1C (stereo not drawn) [ropivacaine docusate]
solubility in lipophilic oils such as medium-chain triglycerides [3]: suitable solubility

CCCN1CCCC[C@H]1C(=O)Nc1c(C)cccc1C [ropivacaine]
solubility in lipophilic oils such as medium-chain triglycerides [3]: poor solubility
